≈ marks a conversion by molar mass, not a printed value. Read-outs that look alike come from different tables or passages of the source.
How the values were obtained:
Assay type in all cases: cell-based, human
[1] = tested on: U251; experiment: MTT survival assay, glioma cell line (brain tumor U251); conditions: U251 (first table)
Experimental: (§1) The effect of the above identified compounds on anti-tumor activity in human carcinoma cells was determined by the MTT survival assay. The MTT assay is a commonly used method in evaluation of cell survival, based on the ability of viable cells to convert MTT (MTT, Sigma, Cat No. 044K5307), a soluble tetrazolium salt [3-(4,5-dimethylthuazole-2-yl)-2,5 diphenyl tetrazolium bromide], into an insoluble formazan precipitate, which is quantitated by spectrophotometry following solubilization in dimethyl sulfoxide (DMSO).
(§2) In brief, different carcinoma cells were treated with negative control, various test articles at different concentration, and positive control (DDP), in 96-well tissue culture dishes. Each test article at different concentration is repeated 3 times.
(§3) Different carcinoma cells were diluted with 10% FBS and RPM1640 or MEM media to a concentration of 3-5×10^4 per ml suspension. 100 microliter of cells were incubated in each well in 96-well tissue culture dishes at 37 C. The cells were incubated at 37 C on the first day. On the second day, media supernatant was removed and replaced with media and different concentration of test articles (100 microliter in each well). Three Negative control wells and three positive control (DDP) wells were also included. The 96-well plate were incubated at 37 C for another 68 hours. After 68 hours, supernatant of each well was removed. 100 microliter of 1 mg/ml MTT diluted in PBS was injected into each well. The cells were incubated at 37 C for another 4 hours. The cells were then solubilized in 150 microliter DMSO, mixed for 10 minutes and absorbance readings were taken using Microplate reader Bio-Rad Model 550 at 570 nm. IR (cell growth inhibition rate) % was calculated as (OD570 of negative control-OD570 with test article)/OD570 of negative control. IC50 (cell 50% inhibition concentration) at 95% confidence level was calculated with Bliss method.

[2] = tested on: MCF-7; experiment: MTT survival assay, breast cancer cell line (MCF-7); conditions: for IC50: Homo sapiens
Experimental: as §1, §2, §3

[3] = tested on: Hela cells; experiment: MTT survival assay, cervical cancer line (Hela cells)
Experimental: as §1, §2, §3

[4] = tested on: SMMC-7721; experiment: MTT survival assay, liver cancer cell line (SMMC-7721); conditions: SMMC-7721
Experimental: as §1, §2, §3

[5] = tested on: A459; experiment: MTT survival assay, lung cancer cell line (A459); conditions: A459
Experimental: as §1, §2, §3

[6] = tested on: SKOV3; experiment: MTT survival assay, ovarian cancer cell line (SKOV3); conditions: SKOV3 (first table)
Experimental: as §1, §2, §3

## COc1ccccc1NC(=O)CSc1nc(-c2ccccc2)nc2ccccc12 [Mol 44]
[1]; Homo sapiens, U-251, Bliss method, unit not printed (concentrations in μg/ml), read-out: IC50 (95% confidence level)
  IC50: 129 mg/L (≈ 322 µM)
[1]; 1.56 μg/ml
  IR (%): 9.9%
  OD(A570 nm): 0.790 ± 0.086
[1]; 3.125 μg/ml
  IR (%): 19.6%
  OD(A570 nm): 0.705 ± 0.061
[1]; 6.25 μg/ml
  IR (%): 1.2%
  OD(A570 nm): 0.866 ± 0.090
[1]; 12.5 μg/ml
  IR (%): 7.5%
  OD(A570 nm): 0.811 ± 0.050
[1]; 25 μg/ml
  IR (%): 15.9%
  OD(A570 nm): 0.737 ± 0.067
[1]; 50 μg/ml
  IR (%): 24.9%
  OD(A570 nm): 0.659 ± 0.047
[2]; 1.56 μg/ml
  IR (%): 13.3%
  OD(A570 nm): 0.787 ± 0.176
[2]; 3.125 μg/ml
  IR (%): 12.8%
  OD(A570 nm): 0.811 ± 0.109
[2]; 6.25 μg/ml
  IR (%): 10.2%
  OD(A570 nm): 0.791 ± 0.151
[2]; 12.5 μg/ml
  IR (%): 12.4%
  OD(A570 nm): 0.791 ± 0.151
[2]; 25 μg/ml
  IR (%): 34.9%
  OD(A570 nm): 0.587 ± 0.030
[2]; 50 μg/ml
  IR (%): 41.6%
  OD(A570 nm): 0.527 ± 0.035
[2]; MCF7, 95% confidence limits of IC50, read-out: IC50 (95% confidence level), interval
  IC50: 71.3 to 551 mg/L (≈ 178 to 1370 µM)
[2]; MCF7, Bliss method, unit not printed (concentrations in μg/ml), read-out: IC50 (95% confidence level)
  IC50: 145 mg/L (≈ 362 µM)
[3]; 0.07 μg/ml
  IR (%): 19.3%
  OD(A570 nm): 0.599 ± 0.109
[3]; 0.21 μg/ml
  IR (%): 11.8%
  OD(A570 nm): 0.655 ± 0.007
[3]; 0.62 μg/ml
  OD(A570 nm): 0.765 ± 0.200
[3]; 1.85 μg/ml
  IR (%): 0.8%
  OD(A570 nm): 0.737 ± 0.113
[3]; 5.56 μg/ml
  IR (%): 9.7%
  OD(A570 nm): 0.671 ± 0.044
[3]; 16.67 μg/ml
  IR (%): 7.4%
  OD(A570 nm): 0.688 ± 0.045
[4]; 1.56 μg/ml
  IR (%): 37.6%
  OD(A570 nm): 0.275 ± 0.004
[4]; 3.125 μg/ml
  IR (%): 27.2%
  OD(A570 nm): 0.321 ± 0.088
[4]; 6.25 μg/ml
  IR (%): 38.3%
  OD(A570 nm): 0.272 ± 0.019
[4]; 12.5 μg/ml
  IR (%): 11.1%
  OD(A570 nm): 0.392 ± 0.039
[4]; 25 μg/ml
  IR (%): 15.4%
  OD(A570 nm): 0.373 ± 0.019
[4]; 50 μg/ml
  IR (%): 21.6%
  OD(A570 nm): 0.345 ± 0.025
[5]; 1.56 μg/ml
  IR (%): 0.6%
  OD(A570 nm): 0.634 ± 0.009
[5]; 3.125 μg/ml
  IR (%): −23.3%
  OD(A570 nm): 0.786 ± 0.048
[5]; 6.25 μg/ml
  IR (%): −6.8%
  OD(A570 nm): 0.680 ± 0.015
[5]; 12.5 μg/ml
  IR (%): 8.1%
  OD(A570 nm): 0.586 ± 0.051
[5]; 25 μg/ml
  IR (%): 21.0%
  OD(A570 nm): 0.504 ± 0.046
[5]; 50 μg/ml
  IR (%): 42.3%
  OD(A570 nm): 0.368 ± 0.039
[5]; Homo sapiens, Bliss method, unit not printed (concentrations in μg/ml), read-out: IC50 (95% confidence level)
  IC50: 150 mg/L (≈ 374 µM)
[6]; Homo sapiens, SK-OV-3, Bliss method, unit not printed (concentrations in μg/ml), read-out: IC50 (95% confidence level)
  IC50: 60 mg/L (≈ 149 µM)
[6]; 1.56 μg/ml
  IR (%): 27.9%
  OD(A570 nm): 0.505 ± 0.029
[6]; 3.125 μg/ml
  IR (%): 23.9%
  OD(A570 nm): 0.533 ± 0.017
[6]; 6.25 μg/ml
  IR (%): 23.0%
  OD(A570 nm): 0.539 ± 0.023
[6]; 12.5 μg/ml
  IR (%): 25.1%
  OD(A570 nm): 0.525 ± 0.035
[6]; 25 μg/ml
  IR (%): 39.1%
  OD(A570 nm): 0.426 ± 0.008
[6]; 50 μg/ml
  IR (%): 52.4%
  OD(A570 nm): 0.333 ± 0.008
